According to the NIST ThermoML archive (doi:10.1021/je8002095):

Key:
[1] = refractive index (Na D-line) (dimensionless); details: 101.33 kPa, Liquid
[2] = for kinematic viscosity / mass density / speed of sound: 101.33 kPa, Liquid
[3] = molar heat capacity at constant pressure; details: 101.33 kPa, Liquid, differential scanning calorimeter

CCCCCCCC[n+]1cccc(C)c1.F[B-](F)(F)F [N-octyl-3-methylpyridinium tetrafluoroborate]
Details	kinematic viscosity, [2] [m2/s]	mass density, [2] [kg/m3]	molar heat capacity at constant pressure, [3] [J/K/mol]	refractive index, [1]	speed of sound, [2] [m/s]	surface tension liquid-gas, [2] [mN/m]
278.15 K	0.00248	1106.4	433.8	–	1571.9	39.82
280.65 K	0.00193	1105	435.7	–	1564.9	39.28
283.15 K	0.00154	1103.6	437.4	1.45978	1557.7	38.7
285.65 K	0.00123	1102.1	439.4	1.45907	1549.2	38.3
288.15 K	0.00102	1100.7	441.4	1.45835	1541.2	37.91
290.65 K	0.000817	1099.4	443.7	1.45764	1533.5	37.52
293.15 K	0.000681	1097.7	446.1	1.45691	1526.3	37.19
295.65 K	0.000558	1096.3	448.4	1.4562	1518.7	36.81
298.15 K	0.000462	1094.5	450.5	1.45547	1511.4	36.51
300.65 K	0.000388	1093.3	452.8	1.45477	1505.4	36.23
303.15 K	0.000327	1091.5	455	1.45405	1498.1	35.94
305.65 K	0.00028	1089.7	457.2	1.45333	1491.2	35.67
308.15 K	0.000238	1088.1	459.2	1.45261	1484.6	35.46
310.65 K	0.000205	1086.3	461.3	1.4519	1478.1	35.22
313.15 K	0.000177	1084.7	463.3	1.45121	1472.3	35.02
315.65 K	0.000156	1083.1	465.1	1.45047	1465.7	34.81
318.15 K	0.000136	1081.4	467	1.44976	1459.3	34.63
320.65 K	0.000119	1079.8	468.7	1.44903	1453.2	34.46
323.15 K	0.000105	1078.3	470.3	1.44831	1446.5	34.28
325.65 K	9.27e-05	1076.5	472	1.4476	1440.4	34.13
328.15 K	8.22e-05	1074.9	473.7	1.4469	1433.6	33.98
